From US20190298715A1, “IMMUNE EFFECTOR CELL THERAPIES WITH ENHANCED EFFICACY” (Novartis AG, priority 2016, published 2019) come the findings set out here.

For orientation: IC50 means the midpoint of a concentration-inhibition curve.

The target of one data set is T1, full-length LSD1 (Homo sapiens, UniProt O60341).
T1 construct: the full-length LSD1 and 0.5 μM FAD in reaction buffer
Put plainly: FL-LSD1 LC-MS assay. In kind it is biochemical. The settings on record: 0.4 nM FL-LSD1, 0.25 μM FAD, 0.5 μM H3K4me1 peptide, 60 min; read-out: LCMS IC50 (LSD1 IC50 as measured by LCMS). Here is the method: Representative compounds of the present disclosure were serially and separately diluted 3-fold in DMSO to obtain a total of twelve concentrations. […] A 5 μL solution of 1 μM of the peptide substrate H3K4me1 (histone H3[1-21]-biotin) in reaction buffer was added to each initiate reaction. […] The conversion ratio of H3K4me1 substrate to the H3K4me0 product was calculated by dividing the peak area of the H3K4me0 peptide by the total peak area of all those two peptides on the assumption that the ionization efficiency of those peptides is the same. The data were then fit to a dose response equation using the program Helios to get the IC50 values of the test compound.

The next data set concerns human T cells. Put plainly: T cell phenotype after anti-CD3/CD28 expansion with LSD1 shRNA (flow cytometry). In kind it is cell-based. Conditions: 10 days anti-CD3/CD28 expansion, transfected with DNA encoding shRNA. The procedure:
Flow cytometry was performed on a four laser Fortessa (Becton-Dickinson).
Inhibition of LSD1 by shRNA promotes the expansion of TSCM cells T cells were isolated by negative selection and expanded with anti-CD3/CD28 beads at a 3:1 ratio for 10 days. On day 1, T cells were transduced with lentiviral expression vectors containing LSD1 shRNA targeting sequences that co-expressed the fluorescent protein mCherry. Following expansion, T cell phenotypes of mCherry+ T cells were assessed by flow cytometry.
(A flow cytometer gives signals particle by particle.)

Consider `CS(=O)(=O)c1ccc(-c2cc(-c3cc(C#N)c(N4CCNCC4)[nH]3)ccc2Cl)cc1` [5-(6-chloro-4′-(methylsulfonyl)biphenyl-3-yl)-2-(piperazin-1-yl)-1H-pyrrole-3-carbonitrile], for which, at full-length LSD1, the IC50 amounted to 12 nM. As to `COc1ccc(-n2cc(-c3cccc(N)c3C)c3cc(C#N)c(C)cc32)cc1` [NVS Compound 2, 3-(3-amino-2-methylphenyl)-1-(4-methoxyphenyl)-6-methyl-1H-indole-5-carbonitrile], the IC50 on full-length LSD1 came to 5 nM. In the case of “LSD1 2: shRNA to LSD1, encoded by SEQ ID NO: 127 (DNA CAGAAGGCCTAGACATTAAACCTCGAGGTTTAATGTCTAGGCCTTCTGTTTTTTGA; the letters are possibly those of the target site)”, in the data set on human T cells, the “percentage of CD4+ T cells having the TSCM (CD45RA+CD62L+CCR7+CD27+CD95+) phenotype” value is reported as “enriched in TSCM” and the “percentage of CD8+ T cells having the TSCM (CD45RA+CD62L+CCR7+CD27+CD95+) phenotype” value is listed as around 50%. Turning to `CN(C)C1CCN(S(=O)(=O)c2ccc(-n3ncc4c(-c5ccc(C6CCNCC6)cc5)cccc43)cc2)CC1` [N,N-dimethyl-1-((4-(4-(4-(piperidin-4-yl)phenyl)-1H-indazol-1-yl)phenyl)sulfonyl)piperidin-4-amine], at full-length LSD1, the IC50 amounted to 9 nM.

B1: LSD1 1A: shRNA to LSD1, encoded by SEQ ID NO: 125 (nucleic acid)
DNA: CGGTTGCTAGAAGCTACATCTGTTAATATTCATAGCAGATGTAGCTTCTAGCAACCGTTTTTTGA
Take B1: in the data set with human T cells, the “percentage of CD4+ T cells having the TSCM (CD45RA+CD62L+CCR7+CD27+CD95+) phenotype” value is given as “enriched in TSCM” and the “percentage of CD8+ T cells having the TSCM (CD45RA+CD62L+CCR7+CD27+CD95+) phenotype” value is on record as around 50%.

B2: LSD1 1B: shRNA to LSD1, encoded by SEQ ID NO: 126 (nucleic acid)
DNA: CGGTTGCTAGAAGTTACATTTGTTAATATTCATAGCAGATGTAGCTTCTAGCAACCGTTTTTTGA
modifications: the letters are possibly those of the target site
As to B2, in the data set on human T cells, the “percentage of CD4+ T cells having the TSCM (CD45RA+CD62L+CCR7+CD27+CD95+) phenotype” value is on record as “up to 20%” and the “percentage of CD8+ T cells having the TSCM (CD45RA+CD62L+CCR7+CD27+CD95+) phenotype” value is listed as around 50%.
